Assays:
[1] = test system: N1S1 liver carcinoma cells; experiment: N1S1 tumor volume by MRI in rats treated with TTFields and/or sorafenib; assay type: in vivo, Sprague Dawley rats
Procedure: Tumor volume was determined by MRI. […] In this experiment, the volume of the tumor was measured using MRI on day 6 (one day before treatment start) and day 14 (one day after the end of treatment); and each data point in FIG. 1A represents the volume of the tumor on day 14 divided by the volume of the tumor on day 6. Thus, numbers greater than 1 represent growth in the tumor volume, and numbers smaller than 1 represent a tumor that has shrunk between day 6 and day 14. In this figure, “*” represents p<0.1, “**” represents p<0.01, and “****” represents p<0.0001. […] FIG. 1B represents the volume of the tumor.
(§1) Male SD rats, 8-weeks of age (Envigo Ltd, Israel), were anesthetized by I.P. injection of Ketamine (75 mg/kg) and Xylazine (10 mg/kg)(FIG. 2). After loss of postural reflexes, the fur was removed from the upper abdominal area using a trimmer. The left lobe of the liver was surgically exposed and 10 μl of cell suspension containing 50,000 N1-S1 hepatocellular carcinoma cells in equal volumes of serum free medium and Matrigel (CORNING, Bedford, MA) were injected directly into the left lobe using a syringe with a 31-gauge needle. The peritoneum and abdominal muscles incisions were closed using surgical sutures and the skin were close by clips. The rats were allowed to recover for 6 days.
(§2) On day 6 all animals underwent a first MRI scan and were randomly divided into the following treatment groups:
(§3) Group I—rats were treated with sham heating electrodes and vehicle injection.
(§4) Group II—rats were treated with 150 kHz TTFields and vehicle injection.
Group III—rats were treated with 10 mg/kg/day Sorafenib.
Group IV—rats were treated with 150 kHz TTFields and 10 mg/kg/day Sorafenib.
On day 7, electrodes (TTFields or sham heating) were placed on the animals. The animals were treated for 6 days with TTFields or sham heat. […] Tumor volume were determined based on MRI scans on days […] after tumor implantation. […] Tumor volume was measured by manual segmentation of the tumor using ITK-SNAP version 3.6.0-rc1 free software. […]

N1S1 tumors = experiment: Fibrosis evaluation (score and Masson Trichrome morphometry) of treated N1S1 tumors; assay type: in vivo, SD rats
Procedure: as §1, §2, §3, §4
Group III—rats were treated with 10 mg/kg/day Sorafenib. […]
On day 7, electrodes (TTFields or sham heating) were placed on the animals. […] Tumor volume were determined based on MRI scans on days […] after tumor implantation. […] Tumor volume was measured by manual segmentation of the tumor using ITK-SNAP version 3.6.0-rc1 free software. […]
Tumors were harvested for histological evaluation of the grade of fibrosis using a semi-quantitative evaluation scale. […] Masson Trichrome stained sections were analyzed for fibrosis, using a scoring grade scale and digital morphometry.
H&E stained sections were examined by one pathologist and scored by a semi-quantitative scoring system for the presence of pathological changes (FIGS. 3 and 3A), as follows: • Grade 0: no signs of fibrosis • Grade 1: very mild signs of fibrosis • Grade 2: mild signs of fibrosis • Grade 3: moderate signs of fibrosis • Grade 4: High grade of fibrosis • Grade 5: Very high grade of fibrosis […]
The percent of the stained areas (FIG. 3: top-right) out of the whole tissue (FIG. 3: top-right+bottom-left) was calculated as shown in FIG. 4.

CNC(=O)c1cc(Oc2ccc(NC(=O)Nc3ccc(Cl)c(C(F)(F)F)c3)cc2)ccn1 [sorafenib]
tumor volume ([1]; combination of TTFields (2.86 V/cm) and sorafenib (10 mg/kg/day)): synergistic decrease | decrease in tumor volume ([1]; combination of TTFields and sorafenib, N1S1 tumors, FIG. 1): ≥ 10 fold | fold increase in tumor volume (day 14 / day 6) ([1]; combination of TTFields at 150 kHz and sorafenib 10 mg/kg/day IP, MRI): significantly reduced | fibrosis score (N1S1 tumors; TTFields in combination with sorafenib, relative to TTFields alone, evaluated by a pathologist): significantly reduced | reduction in fibrotic area compared to control group (N1S1 tumors; combined treatment of 150 kHz TTFields and sorafenib 10 mg/kg/day): 20.8% | decrease in fibrotic area relative to control (N1S1 tumors; sorafenib alone, 10 mg/kg/day, morphometry of fibrosis percent): 30.4%
